Laboratory results taken from publication doi:10.1101/2024.01.24.577111v1 (biorxiv, 2024).

What was measured:
rat TRPM8 = rat TRPM8 (Rattus norvegicus, UniProt Q8R455); test: Fura-2 ratiometric calcium imaging, agonist dose-response; type: cell-based
mouse TRPM8 (mTRPM8) = mouse TRPM8 (mTRPM8) (Mus musculus, UniProt Q8R4D5); test: whole-cell patch clamp, shift of voltage for half-maximal activation; type: cell-based; settings: agonist; 30 µM rapamycin, calcium-free, pH 7.4, 33 °C
mouse TRPM8 (mTRPM8), sequence (Q8R4D5 whole entry): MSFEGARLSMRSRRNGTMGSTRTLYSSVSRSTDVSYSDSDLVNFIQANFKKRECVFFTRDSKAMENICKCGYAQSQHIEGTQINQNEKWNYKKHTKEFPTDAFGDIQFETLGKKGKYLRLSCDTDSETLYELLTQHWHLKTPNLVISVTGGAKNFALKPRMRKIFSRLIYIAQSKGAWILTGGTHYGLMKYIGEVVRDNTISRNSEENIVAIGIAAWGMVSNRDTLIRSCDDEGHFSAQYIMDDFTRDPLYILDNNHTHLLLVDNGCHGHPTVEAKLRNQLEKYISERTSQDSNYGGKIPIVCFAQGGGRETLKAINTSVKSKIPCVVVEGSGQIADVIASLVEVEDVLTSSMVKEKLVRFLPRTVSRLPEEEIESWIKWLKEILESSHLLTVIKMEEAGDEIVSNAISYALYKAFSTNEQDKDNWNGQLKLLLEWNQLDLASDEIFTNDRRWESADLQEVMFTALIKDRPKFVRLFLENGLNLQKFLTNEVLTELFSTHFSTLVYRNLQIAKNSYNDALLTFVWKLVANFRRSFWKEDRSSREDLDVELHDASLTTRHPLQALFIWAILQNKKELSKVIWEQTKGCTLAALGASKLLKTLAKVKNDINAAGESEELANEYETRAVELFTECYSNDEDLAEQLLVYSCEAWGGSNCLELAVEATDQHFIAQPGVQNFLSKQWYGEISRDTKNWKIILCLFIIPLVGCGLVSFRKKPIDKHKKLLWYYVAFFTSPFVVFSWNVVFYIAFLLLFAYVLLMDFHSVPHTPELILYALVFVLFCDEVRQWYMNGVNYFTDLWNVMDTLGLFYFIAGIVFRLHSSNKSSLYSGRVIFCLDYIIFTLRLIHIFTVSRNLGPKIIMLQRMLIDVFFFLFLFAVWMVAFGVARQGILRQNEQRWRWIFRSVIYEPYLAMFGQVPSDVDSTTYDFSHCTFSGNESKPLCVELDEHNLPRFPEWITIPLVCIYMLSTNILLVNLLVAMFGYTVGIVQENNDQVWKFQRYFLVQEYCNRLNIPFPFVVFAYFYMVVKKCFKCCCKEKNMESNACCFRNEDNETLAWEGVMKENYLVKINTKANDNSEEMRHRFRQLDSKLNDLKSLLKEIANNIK

rat TRPM8, sequence (Q8R455 whole entry): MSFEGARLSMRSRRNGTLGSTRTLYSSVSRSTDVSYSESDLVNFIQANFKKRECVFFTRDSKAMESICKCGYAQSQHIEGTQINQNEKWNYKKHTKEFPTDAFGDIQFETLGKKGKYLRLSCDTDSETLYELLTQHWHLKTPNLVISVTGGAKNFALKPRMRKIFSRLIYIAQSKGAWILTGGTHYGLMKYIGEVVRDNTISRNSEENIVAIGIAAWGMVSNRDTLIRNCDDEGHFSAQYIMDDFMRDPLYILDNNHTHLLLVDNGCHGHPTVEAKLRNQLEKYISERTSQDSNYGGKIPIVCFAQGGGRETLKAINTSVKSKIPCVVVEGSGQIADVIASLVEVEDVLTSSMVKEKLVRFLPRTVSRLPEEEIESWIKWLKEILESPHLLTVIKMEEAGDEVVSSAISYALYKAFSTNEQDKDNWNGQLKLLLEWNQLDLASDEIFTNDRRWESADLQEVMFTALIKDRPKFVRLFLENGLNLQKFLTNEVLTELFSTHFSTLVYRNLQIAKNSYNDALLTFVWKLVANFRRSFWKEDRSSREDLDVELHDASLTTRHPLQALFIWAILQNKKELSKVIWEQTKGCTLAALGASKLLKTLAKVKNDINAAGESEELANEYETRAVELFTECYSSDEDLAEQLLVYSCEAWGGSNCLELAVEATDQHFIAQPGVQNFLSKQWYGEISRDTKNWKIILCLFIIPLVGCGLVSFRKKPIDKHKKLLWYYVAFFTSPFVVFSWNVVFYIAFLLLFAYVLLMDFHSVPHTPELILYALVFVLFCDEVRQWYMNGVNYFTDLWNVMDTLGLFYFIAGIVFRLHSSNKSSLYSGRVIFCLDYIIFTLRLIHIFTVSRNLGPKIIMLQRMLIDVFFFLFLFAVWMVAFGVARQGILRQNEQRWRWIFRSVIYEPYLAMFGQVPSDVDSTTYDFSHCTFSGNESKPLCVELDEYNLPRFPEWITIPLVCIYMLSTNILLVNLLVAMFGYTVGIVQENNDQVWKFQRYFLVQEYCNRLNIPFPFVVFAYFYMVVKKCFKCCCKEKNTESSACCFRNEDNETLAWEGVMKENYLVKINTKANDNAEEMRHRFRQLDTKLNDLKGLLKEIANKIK

- EC50 (rat TRPM8): 6.5 ± 1.5 µM
- ΔV1/2 (mouse TRPM8 (mTRPM8)): −102.1 ± 5.2 mV
SMILES: CO[C@H]1C[C@@H]2CC[C@@H](C)[C@@](O)(O2)C(=O)C(=O)N2CCCC[C@H]2C(=O)O[C@H]([C@H](C)C[C@@H]2CC[C@@H](O)[C@H](OC)C2)CC(=O)[C@H](C)/C=C(\C)[C@@H](O)[C@@H](OC)C(=O)[C@H](C)C[C@H](C)/C=C/C=C/C=C/1C [rapamycin]
